One data set has as its target T1, D2R (Homo sapiens, UniProt P14416).
T1 construct: expressed in transfected cells; host or cells: HEK293T
As to the kind of experiment: GIRK activation assay, whole-cell patch clamp, HEK293T co-transfected with M, D2R and GIRK1 (F137S). The format is cell-based. Conditions: for photo-agonism of D2R (GIRK inward current): P tethered to M, compared with saturating dopamine (1 μM). Here is the method: D2R photo-activation was evaluated in a G protein-activated inwardly rectifying K^+ channel (GIRK) activation assay. The M anchoring protein was re-designed by substituting the SNAP-tag at its external N-terminal with a HALO-tag (FIG. 3A). HEK293T were co-transfected with M, D2R and the homotetramerizing mutant of GIRK1 (F137S), making it possible to detect D2R activation as Gi/o-dependent GIRK inward-current at high external K^+ and negative holding potential. Transfected cells were patch clamped in whole-cell configuration and alternately irradiated with 440 nm light or perfused with a saturating (1 μM) concentration of dopamine to elicit maximal D2R activation.
(A) Schematic representation of D2R activation by MP-D2ago in response to light. (B, C) Representative traces of MP-D2ago with one (1×; B) or two (2×; C) branch points. (D) Summary of the maximal photo-activation of D2R by MP-D2ago relative to a saturating concentration of DA (1 μM). […] Summary of the activation and deactivation kinetics (E) and light sensitivity (F) of D2R in response to 1× or 2×MP-D2ago.
To complement our cell-targeted D2R photo-agonist, a tethered photo-antagonist for D2R was designed. The same photoswitch architecture was employed; however, in this case, one of two substituted phenyl piperazines was used as a head group (FIG. 5A). Two variant phenyl piperazines, 2,3-dichloro- and 2-methoxy-phenylpiperazine, were chosen as the core scaffold. To each of these, we appended a 3-carbon (C3) linker followed by the same PEG- and HALO substrate employed in the synthesis of P-D2ago, thereby generating potential photo-antagonists. […] A 4-carbon linker at this position was tested.
FIG. 5A-5G: Evaluation of phenylpiperazine-based MPs of D2R in HEK293T cells. A) Chemical structures of P-D2 constructs used to label the M protein. B) Schematic representation MP-D2block,C3 and MP-D2pa,C3 activity under light irradiation. CD) Patch clamp electrophysiology traces of tethered partial agonists. E) Schematic representation of dopamine blocking by MP-D2block under light irradiation. F,G) Patch clamp electrophysiology traces of tethered D2 antagonist.
For orientation: In patch-clamp work, channel activity is measured electrically.

Data set [1] is described as follows: UV/Vis photophysical characterization of the photoswitch. The class given is physicochemical. Here is the method: FIG. 2A-2E. Synthesis of P-D2ago and photophysical characterization. A) Chemical Synthesis of P-D2ago. B) UV Vis absorbance spectra of P-D2ago (20 μM in DMSO, 24° C.) in the dark and under 415 nm irradiation. C) Wavelength scan for P-D2ago (20 μM, DMSO, 24° C.). Each wavelength is applied for 2 minutes. […] E) Thermal relaxation of P-D2ago in DMSO after 1 minute irradiation with 415 nm at 37° C. F) Synthesis of branched, photoswitchable amino indenyl dimer P-D2ago-2X.
UV Vis data were analyzed and plotted using […] Prism. Irradiation was achieved from the top of the cuvette through a fiber-optic cable. […] Absorbance (reported as Abs, in arbitrary units) was measured at 420 nm over time. Thermal Relaxation was measured after 1 min irradiation with 415 nm at 10 or 20 μM, and subsequently absorption increase was detected at 420 nm. The relaxation half-live of the cis-isomer was determined by curve fitting, using exponential one-phase decay in […] Prism. Photostationary states were determined by pre-irradiation of samples (20 uM, DMSO) for 10 min at the respective wavelengths. Samples for LCMS separation were prepared under red-light conditions in amber vials and immediately subjected to LCMS.
FIG. 8A-8E: Photophysical Characterization of P-D1block(24) A) UV Vis absorption spectra of dark-adapted (100% trans) P-D1block(24) in DMSO (20 μM), and after preirradiation with 370/460 nm for 10 min. […] C) Photostationary state (PSS) of P-D1block(24) in DMSO (20 μM, 24° C.), after preirradiation with 360/420 nm for 10 min. Detection of PSS was achieved by LCMS by separation of isomers and integration of Abs at the isosbestic point of cis- and trans-isomers at the respective elution solvent mixtures. D, E) Thermal relaxation of P-D1block(24) in 10% DMSO in PBS and 100% DMSO at 37° C., detection of Abs at 340 nm after pre-irradiation of the samples for 10 min at 360 nm.

T1 sequence (P14416 whole entry): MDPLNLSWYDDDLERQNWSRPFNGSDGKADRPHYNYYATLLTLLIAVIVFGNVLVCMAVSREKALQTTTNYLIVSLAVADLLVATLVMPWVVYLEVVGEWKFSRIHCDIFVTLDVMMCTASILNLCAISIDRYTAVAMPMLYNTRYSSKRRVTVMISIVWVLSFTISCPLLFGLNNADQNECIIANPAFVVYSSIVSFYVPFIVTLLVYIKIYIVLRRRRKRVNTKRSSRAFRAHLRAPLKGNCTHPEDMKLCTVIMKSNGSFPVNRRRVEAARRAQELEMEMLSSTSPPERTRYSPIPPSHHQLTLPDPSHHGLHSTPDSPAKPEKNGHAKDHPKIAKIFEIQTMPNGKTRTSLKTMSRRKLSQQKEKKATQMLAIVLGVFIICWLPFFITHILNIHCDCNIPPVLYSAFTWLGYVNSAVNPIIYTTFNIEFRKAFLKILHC

For the compound `COc1ccccc1N1CCNCC1` [2-methoxy-phenylpiperazine], the “photo-agonism of D2R (GIRK inward current)” value (“photo-agonism of D2R” for short) at D2R (440 nm light) is reported as “very weak partial agonism”. For the same compound, the “photo-antagonism of D2R activation by dopamine” value at D2R (tethered to M, 440 nm light, 1 uM dopamine) is listed as “very weak antagonism”.

On to `CCCN(CCCCNc1ccc(/N=N/c2ccc(NC(=O)CCOCCOCCOCCOCCOCCOCCOCCOCCOCCOCCOCCOCCOCCOCCOCCOCCOCCOCCOCCOCCOCCOCCOCCOCCNC(=O)CCC(NC(=O)CCC(=O)NCCOCCOCCCCCCCl)C(=O)NCCOCCOCCOCCOCCOCCOCCOCCOCCOCCOCCOCCOCCOCCOCCOCCOCCOCCOCCOCCOCCOCCOCCOCCOCCC(=O)Nc3ccc(/N=N/c4ccc(NCCCCN(CCC)C5Cc6ccccc6C5)cc4)cc3)cc2)cc1)C1Cc2ccccc2C1` (stereo not shown) [2X-P-D2ago], for which the “photo-agonism of D2R” value at D2R (440 nm light) is reported as “same maximal activation”. Moreover, the “sensitivity to light, greater than P-D2ago” value at D2R (tethered to M) is approximately 5 fold. Also, the “activation kinetics, faster than P-D2ago” value at D2R (tethered to M, 440 nm light) is on record as approximately 2 fold.

Consider `CCCN(CCCCNc1ccc(/N=N/c2ccc(NC(=O)CCOCCOCCOCCOCCOCCOCCOCCOCCOCCOCCOCCOCCOCCOCCOCCOCCOCCOCCOCCOCCOCCOCCOCCOCCNC(=O)CCC(=O)NCCOCCOCCCCCCCl)cc2)cc1)C1Cc2ccccc2C1` [P-D2ago], for which, in data set [1] (20 μM in DMSO, alternating irradiation), the reversible switching entry is reported as “without fatigue”. Besides, in data set [1] (10% DMSO in PBS), the “thermal back-relaxation in aqueous environment” value is recorded as “exceeds the detection limit”. The absorption maximum in data set [1] (UV/Vis, 20 μM in DMSO, 24° C.) was 424 nm. Moreover, the “wavelength of maximal switching into the cis-form (maximum PSS)” value in data set [1] (wavelength scan, 20 μM, DMSO, 24° C.) worked out at 440 nm. The “photo-agonism of D2R” value at D2R (440 nm light) was “full photo-agonism”.

(Values after patent US20250262308A1, “Compositions and Methods for Modulating Dopamine Receptor Activity” (The Regents of the University of California, priority 2022, published 2025).)
